From patent US20100092480A1, “MODULATORS OF PROTEIN PHOSPHATASE 2A” (priority 2006, published 2010)
Starred links: 1 amine or outer side, 2 acyl side, 3 side chain; linkers in the order of their positions; H or OH if unused. Positions of bridges follow the written chain, without caps; N, C: chain ends. Non-standard residues stand in square brackets, D forms with d. Residues, ends and D or L forms follow the SMILES beside them. Adda = CO[C@@H](Cc1ccccc1)[C@@H](C)/C=C(C)/C=C/[C@H](N[*:1])[C@H](C)C(=O)[*:2]; dAsp(3S-Me) = C[C@H](C(=O)[*:3])[C@@H](N[*:1])C(=O)[*:2]; d(γGlu) = O=C(O)[C@@H](CCC(=O)[*:2])N[*:1]; NMeDha = C=C(NC)C(=O)O

Tests used:
PP2A = PP2A (Homo sapiens, UniProt P67775); settings: cited from earlier work
PP2A core = PP2A core (Homo sapiens, UniProt P67775); type: biochemical; settings: stoichiometric amounts of inhibitor
PP2A core, sequence (P67775 whole entry): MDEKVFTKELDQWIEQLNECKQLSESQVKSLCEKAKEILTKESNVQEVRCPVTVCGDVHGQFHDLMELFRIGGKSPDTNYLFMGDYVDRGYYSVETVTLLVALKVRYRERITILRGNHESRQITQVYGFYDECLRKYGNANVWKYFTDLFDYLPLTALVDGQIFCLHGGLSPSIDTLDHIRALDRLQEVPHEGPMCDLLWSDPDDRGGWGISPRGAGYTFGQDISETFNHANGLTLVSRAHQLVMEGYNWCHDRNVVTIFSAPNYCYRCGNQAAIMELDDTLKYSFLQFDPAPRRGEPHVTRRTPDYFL
PP2A core, sequence (P30153 whole entry, further chain): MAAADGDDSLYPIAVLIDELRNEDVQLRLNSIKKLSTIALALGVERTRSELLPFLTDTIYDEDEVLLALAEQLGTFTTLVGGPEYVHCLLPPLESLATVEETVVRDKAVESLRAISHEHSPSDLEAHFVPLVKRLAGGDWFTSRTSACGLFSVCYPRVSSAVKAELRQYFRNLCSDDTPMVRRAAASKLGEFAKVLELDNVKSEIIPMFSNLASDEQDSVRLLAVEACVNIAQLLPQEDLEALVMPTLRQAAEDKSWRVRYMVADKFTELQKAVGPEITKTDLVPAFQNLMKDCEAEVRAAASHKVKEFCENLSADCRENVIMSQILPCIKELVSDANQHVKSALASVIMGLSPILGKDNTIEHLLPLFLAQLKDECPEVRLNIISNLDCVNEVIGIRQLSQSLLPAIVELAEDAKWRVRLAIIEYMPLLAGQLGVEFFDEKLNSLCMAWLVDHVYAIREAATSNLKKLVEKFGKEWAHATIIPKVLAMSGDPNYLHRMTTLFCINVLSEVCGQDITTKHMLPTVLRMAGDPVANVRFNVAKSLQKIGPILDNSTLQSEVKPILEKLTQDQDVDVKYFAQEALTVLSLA

PP2A, sequence (P67775 whole entry): as the sequence (P67775 whole entry) above

Row | Structure (SMILES) | inhibition of the activity of PP2A (PP2A) | IC50 (PP2A; PP2A, read-out: inhibitory constant (IC50)) [nM] | inhibition of phosphatase activity of the assembled, purified PP2A core (PP2A core)
1 | C=C1C(=O)N[C@H](C)C(=O)N[C@@H](CC(C)C)C(=O)N[C@@H](C(=O)O)[C@H](C)C(=O)N[C@@H](CCCNC(=N)N)C(=O)N[C@@H](/C=C/C(C)=C/[C@H](C)[C@H](Cc2ccccc2)OC)[C@H](C)C(=O)N[C@@H](C(=O)O)CCC(=O)N1C [MCLR, microcystin-LR] (R[Adda][d(γGlu)][NMeDha][dA]L[dAsp(3S-Me)]-OH; lactam N-7) | potently inhibit |  | 
2 | C=C1[C@@H](O)[C@@H]2O[C@]3(CC[C@H](/C=C/[C@@H](C)[C@@H]4CC(C)=C[C@@]5(O[C@H](C[C@@](C)(O)C(=O)O)CC[C@H]5O)O4)O3)CC[C@H]2O[C@@H]1[C@@H](O)C[C@H](C)[C@H]1O[C@@]2(CCCCO2)CC[C@H]1C [OA, okadaic acid] |  | ~0.1 | efficiently inhibited
